Laboratory results as given in patent US20080193505A1, “Nutritional Compositions For Modulating Vitamin C Bio-Availability” (Nestec S.A., priority 2005, published 2008).

The compounds below were run on HaCaT cells (assay: 14C-labelled ascorbic acid up-take in HaCaT cells (oxidative stress model)). Conditions: iron salt treated cells.
Type: cell-based, human
Protocol: Confluent HaCaT cells were treated for 18-24 h with a test compound or control, incubated with ^14C-labelled ascorbic acid at two different concentrations (5 μM and 250 μM) for 5 min, 10 min, 30 min, 60 min, 90 min and 120 min. Cells were lysed and the radiolabel in the supernatant and the cell lysate was quantified by scintillation counting.
Confluent HaCaT cells were treated for 2 h with 50 μM menadione (black rhombus), 500 μM H2O2 (triangles), conditioned medium obtained from UV-irradiated HaCaT cells (squares) or control (grey rhombus) and subsequently incubated with 50 μM ^14C-labelled ascorbic acid for 5 min, 10 min, 30 min, 60 min, 90 min and 120 min. Cells were lysed and the radiolabel in supernatant and cell lysate quantified by scintillation counting.
Confluent HaCaT cells were treated with 50 μM FeCl3 (triangles) or controls (grey rhombus) for 24 h and for additional 2 h with 50 μM menadione (filled symbols) or controls (open symbols). Subsequently, cells were incubated with 50 μM ^14C-labelled ascorbic acid for 5 min, 10 min, 30 min, 60 min, 90 min and 120 min, cells were lysed and the radiolabel in supernatant and cell lysate quantified by scintillation counting.
Confluent HaCaT cells were incubated with or without test compound (aqueous FeCl3 solution in different concentrations) for 18-24 h and eventually stressed for further 2 h with 50 μM menadione, 500 μM H2O2 or conditioned medium obtained from UV-irradiated HaCaTs. Then cells were washed twice with PBS and incubated with 300 μl or 400 μl of ^14C-labelled ascorbic acid at different concentrations of (5 μM, 50 μM or 250 μM) by diluting the prepared stock solution in the appropriate amount of transfer buffer. After incubation at 37° C. for different periods of time (5, 10, 30, 60, 90 and 120 min) cells were immediately placed on ice, supernatant removed and frozen, cells washed twice with ice-cold PBS and finally harvested with a cell scraper and 300 μl or 400 μl urea buffer (9.5M urea, 10 mM Tris/HCl pH 8.0, 2 mM EDTA pH 8.0). Amount of radiolabel in supernatant and cell lysate was then measured by scintillation counting of a dilution of 50 μl supernatant or 200 μl of cell lysate in 9 ml scintillation cocktail. Obtained data were analysed by blotting incubation time versus ascorbic acid up-take (either as percentage or nmolar).

Compound | Vitamin C uptake by the cell
[Cl][Fe]([Cl])[Cl] [FeCl3] | enlarged

Same assay, conditions: similar conditions as for FeCl3; data not shown

Compound | ascorbic acid up-take in the oxidative stress model
CC(=O)N[C@@H](CS)C(=O)O [N-acetyl-cysteine] | increase ascorbic acid up-take
N[C@@H](CCC(=O)N[C@@H](CS)C(=O)NCC(=O)O)C(=O)O [glutathione] | increase ascorbic acid up-take
NCCCC[C@H](N)C(=O)O [lysine] | increase ascorbic acid up-take

What follows are compounds tested on SVCT1 (assay: Real-time PCR in-vitro test of SVCT1 gene expression in primary keratinocytes). Conditions: NHEK; 10 μM.
Type: cell-based, human
Protocol: Confluent primary keratinocytes (NHEK) were treated with a test compound or subsequently used for reverse transcription and real-time PCR analysis of SVCT1 and SVCT2. 18S-rRNA and GAPDH mRNA analysis served as endogenous control (housekeeping genes).
Primary adult epidermal keratinocytes (NHEK) for Cambrex Company (USA, Ordering number: CC-2501) have been used in this study. They were grown in KGM medium (Cambrex Company, USA, Ordering number: CC-3101 and CC-4131) on fibronectin and collagen type I coated plastic dishes (6- or 12-well plates) at 37° C. and 5% CO2 and expanded until passage 4 where they were used for further experiments.
NHEK cells at passage 4 were seated in 6 well plates at a density of 5000 cells/cm2, determined by means of a Thoma chamber under a light microscope. Cells were grown to 100% confluence within 5-6 days with medium changed every second day and were further used for in vitro-test for gene expression as depicted schematically in FIG. 1.
After removal of the supernatant the cells were rinsed twice with Dubellco's phophate buffered saline (PBS, Sigma, Germany), cells were lysed with 350 μl of a lysis buffer (Buffer RL, Qiagen AG, Basel, Switzerland) containing 1% β-mercaptoethanol (Sigma, USA) and total RNAs from cell lysates were extracted using the QIAshredder column and the RNeasy® Mini Kit (Qiagen AG, Basel, Switzerland). RNA quantification was performed using the Ribogreen® RNA quantitation Kit (Molecular Probes, USA) on 96-well plates and a fluorescence microplate reader (Spectra fluor plus F 129005, Tecan). The measurements were done in duplicate. The samples were diluted either 1:680 or 1:3400 in a final volume of 100 μl 1×TE buffer. Dilutions of the ribosomal RNA in a concentration of 1, 0.5, 0.1, 0.02, 0 μg/ml were used as standards and the measurement was performed by fluorimetry at 485 nm and 538 nm. RNA quantification was then calculated compared to the standard curve. Integrity of RNA was controlled using agarose gel electrophoresis (1% agarose in TBE: 90 mM Tris/HCl pH 8.0, 80 mM Boric acid, 3 mM EDTA in ddH2O).
For reverse transciption 2 μl pd(N)6 random hexamers (Amersham Biosciences, Art. n° 272080, England) and 1 μl dNTP (10 mM, Amersham Biosciences, Art. n° 272050, −60, −70, −80, England) were added to 2 μg RNA in nuclease-free water (Ambion, USA) in a final volume of 12 μl. After 5 min incubation at 65° C., samples were immediately placed on ice and quickly centrifuged. Then, 4 μl of 5× first strand buffer (250 mM NaCl, 0.1 mM EDTA, 1 mM DTT, 0.1% (V/v) NP-40, 50% (v/v) glycerol), 2 μl of dithiothreitol, 1 μl of RNase inhibitor and 1 μl of reverse transcriptase SuperScript II RNase H^− (SUPERase-In, 20 U/μl, Ambion, Art. n° 2694, USA) were added (final volume 20 μl). […] The sample was then kept in the freezer at −20° C. until further use.
The real-time PCR was performed according to the TaqMane method in 96 well plates (96WP) using assays-on-demand primer and probes (SVCT1: Hs00195277_ml, SVCT2:, Hs00192765_ml, 18S-rRNA: 4310893E, GAPDH: 4310884E Applied Biosystems, USA). Analysis was done in triplicate using a master mix (3.5×) which contained 43.7 μl TaqMan® 2× Universal PCR master mix (Applied Biosystems, USA), 4.4 μl assays-on-demand primers and probes, 21.9 μl nuclease-free water and 17.5 μl cDNA (87.5 ng=[…] per replicate). Triplicates of 25 μl master mix were loaded on a 96 well ABI PRISM reaction plate (Applied Biosystems, USA), covered with a transparent optical adhesive cover and centrifuged three times at 200 rpm for 1 min or until all air-bubbles had been removed. The PCR reaction was then performed in the ABI PRISMS 7000 Sequence Detection System (Applied Biosystems, USA) using the following temperature program: activation of the enzyme: 2 min at 50° C.; denaturation: 10 min at 95° C. and 40 cycles target amplification: 15 sec […] at 95° C. and 1 min extension at 60° C.

Compound | influence on expression
(−) epigallocatechin gallate [(−) epigallocatechin gallate (EGCg)] | did not show any influence
O=c1c(O)c(-c2ccc(O)c(O)c2)oc2cc(O)cc(O)c12 [quercitin, quercetin] | did not show any influence
COc1cc(/C=C/C(=O)CC(=O)/C=C/c2ccc(O)c(OC)c2)ccc1O [curcumin] | did not show any influence
O=c1c(-c2ccc(O)cc2)coc2cc(O)cc(O)c12 [genistein] | did not show any influence
Oc1ccc(C2COc3cc(O)ccc3C2)cc1 (racemic) [equol, (R,S)-equol] | did not show any influence
COc1ccc([C@@H]2CC(=O)c3c(O)cc(O)cc3O2)cc1O [hesperetin/hesperidin, hesperetin] | did not show any influence

Same assay, conditions: summary statement in description

Compound | transcription of SVCT1 mRNA
C[S+]([O-])CCCCN=C=S (stereo not shown) [sulforaphane] | significantly down-regulated
[Cl-].[Cl-].[Zn+2] [ZnCl2] | significantly down-regulated
CC1=C(/C=C/C(C)=C/C=C/C(C)=C/C(=O)O)C(C)(C)CCC1 [all-trans retinoic acid] | significantly down-regulated
